This experiment concerns Peripheral blood mononuclear cells (PBMC). The experiment can be described thus: FTIR monitoring of lymphocyte activation. The format is cell-based, human. As for the experimental part: Peripheral blood mononuclear cells (PBMC) from two volunteers, isolated using gradient mixtures were twice washed in 0.9% saline and centrifuged. The resulting pellets were resuspended in 1 ml of saline. One half of each sample was activated with phorbol myristate acetate (PMA) and the other half used as a control. After 15 minutes the four portions were desiccated and transferred to a infrared cell for FTIR microanalysis. For each portion six spectra were recorded.

The mark [1] stands for this setting: PMA activated vs non-activated lymphocytes, 15 minutes.

For `CCCCCCCCCCCCCC(=O)O[C@@H]1[C@@H](C)[C@@]2(O)[C@@H](C=C(CO)C[C@]3(O)C(=O)C(C)=C[C@@H]23)[C@@H]2C(C)(C)[C@]12OC(C)=O` [PMA, phorbol myristate acetate], under “PBMC from two volunteers, PMA activation 15 minutes, desiccated, FTIR microanalysis”, the “FTIR spectra of activated vs non-activated lymphocytes” value is on record as “marked differences”. For the same molecule, the “amide II band” value (PMA activated lymphocytes, 15 minutes) is “multitude of shoulder peaks”. Also, under setting [1], the “C—O stretch of fatty acyl groups (1400 cm-1) and C—O stretches of glycogen bands at 1058 and 1038 cm-1” value is recorded as “much more intense”; the “amide I β-pleated sheet component band at 1634 cm-1” value is given as “increase”; the “α-helical amide I band” value was “reduction”.

The record behind these values is US6642012B1, “Spectroscopic determination of characteristic of biological material” (priority 1996, dated 2003).
